Experimental data reported in article PMC6170555, “Synthesis of novel (E)-1-(2-(2-(4(dimethylamino) benzylidene) hydrazinyl)-4-methylthiazol-5-yl)ethanone derivatives as ecto-5′-nucleotidase inhibitors” (Royal Society Open Science, 2018).

Key:
r-e5′NT = target: T1, r-e5′NT (Rattus norvegicus, UniProt P21588); assay: Ecto-5′-nucleotidase inhibition assay (capillary electrophoresis), rat enzyme; assay type: biochemical; conditions: for IC50 / inhibition at 100 µM: mean ± s.e.m., n = 3; for IC50: substrate AMP 500 µM; for inhibition at 100 µM: compound at 0.1 mM, read-out: r-e5′NT percentage inhibition ± s.e.m.; for inhibitory potential toward r-e5′NT after initial screening: initial screening at 0.1 mM
T1 construct: made in house; host or cells: COS-7 cells, transiently transfected; sonicated extract / membrane fraction
T1 sequence (P21588 29-576): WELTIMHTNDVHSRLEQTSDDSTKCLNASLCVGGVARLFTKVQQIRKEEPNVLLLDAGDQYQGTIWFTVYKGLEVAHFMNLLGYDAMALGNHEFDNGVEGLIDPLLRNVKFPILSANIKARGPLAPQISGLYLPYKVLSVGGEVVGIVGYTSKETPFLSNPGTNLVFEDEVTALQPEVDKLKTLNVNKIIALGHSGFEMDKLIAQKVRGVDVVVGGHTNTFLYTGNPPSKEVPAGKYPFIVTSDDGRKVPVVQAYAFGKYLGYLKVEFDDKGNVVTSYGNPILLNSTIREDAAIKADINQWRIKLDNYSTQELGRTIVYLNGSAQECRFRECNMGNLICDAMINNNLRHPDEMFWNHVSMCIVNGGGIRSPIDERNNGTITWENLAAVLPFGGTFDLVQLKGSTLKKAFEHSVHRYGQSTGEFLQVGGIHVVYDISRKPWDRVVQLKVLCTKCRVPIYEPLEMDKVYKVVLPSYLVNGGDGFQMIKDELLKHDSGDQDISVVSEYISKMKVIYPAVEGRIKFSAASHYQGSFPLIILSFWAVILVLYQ
Description: (§1) The plasmids expressing e5′NT, either rat or human, were used to transfect the COS-7 cells through lipofectamine. The confluent cells were allowed to incubate in DMEM/F-12 having plasmid DNA (6 µg) and transfecting reagent (24 µl) for 5 h at ambient temperature (37°C). To discontinue transfection, a specified volume of DMEM/F-12 was added, containing FBS (20%). These cells were then harvested after 2–3 days.
(§2) The transfected cells were separated from harvesting buffer (45 mM Tris buffer, 95 mM NaCl, and 0.1 mM PMSF, pH 7.5) through scraping, followed by washing with Tris buffer and then allowed to centrifuge by spinning at 300 r.p.m. at 4°C for 5 min [30]. Finally, the cells remained suspended in harvesting buffer solution containing aprotinin (10 µg ml^−1). As a result of sonication, the produced cellular debris was removed by cold centrifugation operated at 300 r.p.m. for 10 min. Glycerol (7.5%) was mixed with the resultant supernatant. The Bradford microplate assay was employed for estimation of protein concentration where albumin was used as a standard.
(§3) The e5′NT inhibition assay was performed with respect to our previously described procedure on P/ACE MDQ capillary electrophoresis system (Beckman Instruments, Fullerton, CA, USA) provided with UV detection system. The samples were prepared in the assay buffer (1 mM CaCl2, 10 mM Tris HCl and 2 mM MgCl2, pH 7.4) and analysed at 0.1 mM concentration. The total assay volume (100 µl) comprises sample (10 µl), 10 µl of h-e5′NT (6.94 µg ml^−1) protein extract or r-e5′NT (7.17 µg ml^−1) and 70 µl of assay buffer. The above mixture was allowed to incubate at 37°C for 10 min. Subsequently, biochemical reaction was started with the addition of substrate (10 µl) and AMP (500 µM). The mixture was incubated again for 30 min at 37°C. The enzyme-substrate reaction was stopped by thermal denaturation for the duration of 20 min by placing the mixture in a water bath at 99°C. Then, 50 µl of obtained mixture was filled into CE mini vials and injected with 0.5 psi into the capillary in 5 s, whereas 15 kV was set to split-up substrate and product peaks. […] Therefore, successive dilution of each active compound was made and different inhibitor concentrations were assayed to obtain the dose–response curve against both enzymes. All experiments were conducted thrice. The nonlinear regression analysis program (PRISM 5.0) was employed to calculate IC50 value.

h-e5′NT = target: T2, h-e5′NT (Homo sapiens, UniProt P21589); assay: Ecto-5′-nucleotidase inhibition assay (capillary electrophoresis), human enzyme; assay type: biochemical; conditions: for IC50 / inhibition at 100 µM: mean ± s.e.m., n = 3; for IC50: substrate AMP 500 µM; for inhibition at 100 µM: compound at 0.1 mM, read-out: h-e5′NT percentage inhibition ± s.e.m.; for inhibitory potential toward h-e5′NT after initial screening: initial screening at 0.1 mM
T2 construct: made in house; host or cells: COS-7 cells, transiently transfected; sonicated extract / membrane fraction
T2 sequence (P21589 27-574): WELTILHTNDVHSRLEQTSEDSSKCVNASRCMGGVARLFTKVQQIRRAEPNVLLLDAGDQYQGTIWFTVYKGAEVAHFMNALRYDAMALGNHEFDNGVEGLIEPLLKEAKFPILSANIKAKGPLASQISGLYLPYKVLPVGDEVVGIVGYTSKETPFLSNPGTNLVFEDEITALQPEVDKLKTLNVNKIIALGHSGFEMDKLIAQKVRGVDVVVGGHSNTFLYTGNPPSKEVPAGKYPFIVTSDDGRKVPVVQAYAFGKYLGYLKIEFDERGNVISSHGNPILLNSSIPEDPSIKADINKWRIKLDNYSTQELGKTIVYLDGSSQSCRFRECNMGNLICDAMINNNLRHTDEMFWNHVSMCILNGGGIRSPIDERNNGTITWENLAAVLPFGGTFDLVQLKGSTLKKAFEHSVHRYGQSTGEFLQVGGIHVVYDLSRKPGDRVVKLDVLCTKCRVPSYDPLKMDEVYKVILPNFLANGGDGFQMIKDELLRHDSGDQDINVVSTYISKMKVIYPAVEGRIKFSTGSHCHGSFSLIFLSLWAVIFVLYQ
Description: as §1, §2, §3

SMILES	IC50 (r-e5′NT) [µM]	IC50 (h-e5′NT) [µM]	potency against h-e5′NT relative to r-e5′NT (h-e5′NT; ratio of IC50 r-e5′NT / h-e5′NT) [fold]	inhibition against h-e5′NT compared with positive control sulfamic acid (h-e5′NT; ratio of IC50 sulfamic acid / compound) [fold]	inhibition at 100 µM (r-e5′NT) [%]	inhibitory potential toward r-e5′NT after initial screening (r-e5′NT)	inhibition at 100 µM (h-e5′NT) [%]	inhibitory potential toward h-e5′NT after initial screening (h-e5′NT)
CC(=O)c1sc(N/N=C/c2cccnc2)nc1C [3a, (E)-1-(4-methyl-2-(2-(pyridin-3-ylmethylene)hydrazinyl)thiazol-5-yl)ethanone]	7.81 ± 0.89	0.32 ± 0.03	24	132	–	–	–	–
CC(=O)c1sc(N/N=C/c2ccc(N(C)C)cc2)nc1C [3b, (E)-1-(2-(2-(4-(dimethylamino)benzylidene)hydrazinyl)-4-methylthiazol-5-yl)ethanone]	10.1 ± 0.58	0.56 ± 0.07	–	–	–	–	–	–
CC(=O)c1sc(N/N=C/c2ccco2)nc1C [3c, (E)-1-(2-(2-(furan-2-ylmethylene)hydrazinyl)-4-methylthiazol-5-yl)ethanone]	–	–	–	–	15.3 ± 2.78	no inhibitory potential	38.1 ± 5.47	no inhibitory potential
CC(=O)c1sc(N/N=C/c2ccc(C)o2)nc1C [3d, (E)-1-(4-methyl-2-(2-((5-methylfuran-2-yl)methylene)hydrazinyl)thiazol-5-yl)ethanone]	–	–	–	–	12.3 ± 3.91	no inhibitory potential	43.6 ± 1.18	no inhibitory potential
CC(=O)c1sc(N/N=C/c2ccc[nH]2)nc1C [3e, (E)-1-(2-(2-((1H-pyrrol-2-yl)methylene)hydrazinyl)-4-methylthiazol-5-yl)ethanone]	–	3.36 ± 0.12	–	–	10.8 ± 4.25	–	–	–
CC(=O)c1sc(N/N=C/c2cc3ccccc3[nH]2)nc1C [3f, (E)-1-(2-(2-((1H-indol-2-yl)methylene)hydrazinyl)-4-methylthiazol-5-yl)ethanone]	–	6.19 ± 0.32	–	–	32.7 ± 1.62	–	–	–
NS(=O)(=O)O [sulfamic acid, reference compound]	77.3 ± 7.01	42.1 ± 7.8	–	–	–	–	–	–
